What follows are compounds tested against mAChR M1 (Homo sapiens, UniProt P11229) (assay: In vitro cellular calcium flux assay, positive allosteric modulation of mAChR M1). Conditions: not given.
Format: cell-based
Procedure: Baby hamster kidney cells stably expressing human or rat mAChR M1 to M5 were utilised for primary and selectivity profiling activities. mAChR M2 and M4 cell lines also stably expressed the chimeric Gαqi5 G-protein.
Human mAChR M1, M3, M5 and rat M1 cells were grown in low glucose Dulbecco's Modified Eagle's Medium (DMEM) medium plus heat inactivated 10% fetal bovine serum (HI FBS) and 500 μg/ml hygromycin B^1. Human mAChR M2 and M4 cells were maintained as above with^2 the addition of 500 μg/ml G418 to the media. Cells were maintained in culture at 37° C./5% CO2 and passaged twice weekly by treatment with 0.05% Trypsin/EDTA detachment solution, centrifugation (200 g, 5 min) and re-suspension in fresh media. Following cell expansion, cells were cryopreserved at −80° C. by treatment with 0.05% Trypsin/EDTA detachment solution, centrifugation (200 g, 5 min) and re-suspension of the pellet in freezing media (90% HI FBS/10% DMSO^3) at 15E6 cells/ml^4.
Prior to assaying, cells were prepared by thawing at 37° C. in a water bath, centrifugation (200 g, 5 min) and re-suspension of the pellet in fresh media. 15000 cells per well were seeded in black, clear bottomed 384-well Greiner Bio-One plates in plating medium (DMEM/10% HI FBS) and incubated overnight at 37 C/5% CO2.
On the day of the assay, media was removed from each well and replaced with 50 μl^5 assay buffer (HBSS with 20 mM HEPES and 2.5 mM Probenecid) containing the calcium indicator, Calcium 4 (Molecular Devices). Cells were then incubated at 37° C./5% CO2 for 30 min and at room temperature.
Compound preparation was carried out by generation of 11-point, 1 in 3 serial dilution concentration response curves in 100% DMSO. Compound was then diluted 1 in 65^6 with assay buffer (HBSS with 20 mM HEPES and 2.5 mM Probenecid) prior to the addition of 10 ul^7 to the cells using a Tetra fluorometric imaging plate reader (Molecular Devices)^8. Compound driven increases in intracellular calcium flux was measured as an increase in fluorescence (494Ex, 516Em)^9.
Positive allosteric modulator pEC50 values and antagonist pIC50 values for each compound were then determined. […] The points of modification and the alternate reagents, concentrations or equipment employed in these examples were: ^1200 μg/ml hygromycin B; ^2G418 not added; ^3CELLBANKER 1; ^410E6; ^5 40 μl; ^6 1 in 99; ^7 20 μl; ^8FDSS6000 (Hamamatsu Photonics); ^9(480Ex, 540Em); ^10Spotfire (TIBCO).

Sequence of mAChR M1 (P11229 whole entry, looked up): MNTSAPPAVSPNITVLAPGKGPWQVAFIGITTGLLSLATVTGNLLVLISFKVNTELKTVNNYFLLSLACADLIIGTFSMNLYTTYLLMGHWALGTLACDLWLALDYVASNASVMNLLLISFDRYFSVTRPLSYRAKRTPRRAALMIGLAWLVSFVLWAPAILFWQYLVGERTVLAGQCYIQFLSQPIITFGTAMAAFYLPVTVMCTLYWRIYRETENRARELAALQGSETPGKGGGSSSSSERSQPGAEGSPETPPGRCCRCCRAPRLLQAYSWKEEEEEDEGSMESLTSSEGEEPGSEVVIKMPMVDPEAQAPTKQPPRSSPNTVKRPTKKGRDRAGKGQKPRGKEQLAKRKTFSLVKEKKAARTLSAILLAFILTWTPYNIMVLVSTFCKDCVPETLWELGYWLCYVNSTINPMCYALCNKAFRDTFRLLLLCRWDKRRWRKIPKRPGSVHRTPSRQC

Row | Structure (SMILES) | EC50 [nM]
1 | O=C(N[C@@H]1CCOC[C@H]1O)c1cn(Cc2cccc(F)c2)c2c(Cl)ccnc12 (single isomer, unassigned) [Example 86, 7-Chloro-1-(3-fluorobenzyl)-N-(trans-3-hydroxytetrahydro-2H-pyran-4-yl)-1H-pyrrolo[3,2-b]pyridine-3-carboxamide] | 25.1
2 | N#Cc1ccc(Cn2cc(C(=O)N[C@H]3CCCC[C@@H]3O)c3nccc(Cl)c32)cn1 [Example 70, 7-Chloro-1-((6-cyanopyridin-3-yl)methyl)-N-((1S,2S)-2-hydroxycyclohexyl)-1H-pyrrolo[3,2-b]pyridine-3-carboxamide] | 100

Same assay, conditions: BHK cells expressing mAChR M1; EC20 carbachol; Examples 76-80 and 82-89 slightly modified procedure

Row | Structure (SMILES) | pEC50 for positive allosteric modulation
3 | O=C(N[C@H]1CCCC[C@@H]1O)c1cn(Cc2cc(F)ccc2F)c2cccnc12 [Example 3, 1-(2,5-Difluorobenzyl)-N-((1S,2S)-2-hydroxycyclohexyl)-1H-pyrrolo[3,2-b]pyridine-3-carboxamide] | 6.8
4 | O=C(N[C@H]1CCCC[C@@H]1O)c1cn(Cc2ccc(Cl)cc2)c2cccnc12 [Example 23, 1-(4-Chlorobenzyl)-N-((1S,2S)-2-hydroxycyclohexyl)-1H-pyrrolo[3,2-b]pyridine-3-carboxamide] | 6.6
5 | O=C(N[C@H]1CCCC[C@@H]1O)c1cn(Cc2cccc(C(F)(F)F)c2)c2cccnc12 [Example 95, N-((1S,2S)-2-hydroxycyclohexyl)-1-(3-(trifluoromethyl)benzyl)-1H-pyrrolo[3,2-b]pyridine-3-carboxamide] | 6.1
6 | Cc1ccc(Cn2cc(C(=O)N[C@H]3CCCC[C@@H]3O)c3ncccc32)nc1 [Example 26, N-((1S,2S)-2-Hydroxycyclohexyl)-1-((5-methylpyridin-2-yl)methyl)-1H-pyrrolo[3,2-b]pyridine-3-carboxamide] | 6.1
7 | COc1ccc(Cn2cc(C(=O)N[C@H]3CCCC[C@@H]3O)c3nccc(Cl)c32)cc1 [Example 58, 7-Chloro-N-((1S,2S)-2-hydroxycyclohexyl)-1-(4-methoxybenzyl)-1H-pyrrolo[3,2-b]pyridine-3-carboxamide] | 7.7
8 | O=C(NC1CCC(F)(F)CC1)c1cn(Cc2ccc(-n3cccn3)cc2)c2cccnc12 [Example 51, 1-(4-(1H-Pyrazol-1-yl)benzyl)-N-(4,4-difluorocyclohexyl)-1H-pyrrolo[3,2-b]pyridine-3-carboxamide] | 6.3
9 | O=C(N[C@H]1CCCC[C@@H]1O)c1cn(Cc2ccc(F)cn2)c2c(Cl)ccnc12 [Example 17, 7-Chloro-1-((5-fluoropyridin-2-yl)methyl)-N-((1S,2S)-2-hydroxycyclohexyl)-1H-pyrrolo[3,2-b]pyridine-3-carboxamide] | 6.9
10 | COc1cc(Cn2cc(C(=O)N[C@H]3CCCC[C@@H]3O)c3ncccc32)ccc1F [Example 91, 1-(4-fluoro-3-methoxybenzyl)-N-((1S,2S)-2-hydroxycyclohexyl)-1H-pyrrolo[3,2-b]pyridine-3-carboxamide] | 6.3
11 | COc1ccc(Cn2cc(C(=O)N[C@H]3CCCC[C@@H]3O)c3ncccc32)c(F)c1 [Example 92, 1-(2-fluoro-4-methoxybenzyl)-N-((1S,2S)-2-hydroxycyclohexyl)-1H-pyrrolo[3,2-b]pyridine-3-carboxamide] | 6.4
12 | Cc1ccc(Cn2cc(C(=O)N[C@H]3CCCC[C@@H]3O)c3ncccc32)cn1 [Example 25, N-((1S,2S)-2-Hydroxycyclohexyl)-1-((6-methylpyridin-3-yl)methyl)-1H-pyrrolo[3,2-b]pyridine-3-carboxamide] | 6.2
13 | Cc1ccnc2c(C(=O)N[C@H]3CCCC[C@@H]3O)cn(Cc3ccc(OC(F)(F)F)cc3)c12 [Example 100, N-((1S,2S)-2-hydroxycyclohexyl)-7-methyl-1-(4-(trifluoromethoxy)benzyl)-1H-pyrrolo[3,2-b]pyridine-3-carboxamide] | 6.8
14 | O=C(NC1CCOCC1)c1cn(Cc2ccc(F)cc2)c2cccnc12 [Example 29, 1-(4-Fluorobenzyl)-N-(tetrahydro-2H-pyran-4-yl)-1H-pyrrolo[3,2-b]pyridine-3-carboxamide] | 5.8
15 | COc1cc(Cn2cc(C(=O)N[C@H]3CCCC[C@@H]3O)c3nccc(Cl)c32)ccn1 [Example 69, 7-Chloro-N-((1S,2S)-2-hydroxycyclohexyl)-1-((2-methoxypyridin-4-yl)methyl)-1H-pyrrolo[3,2-b]pyridine-3-carboxamide] | 8.0
16 | Cc1ccc(Cn2cc(C(=O)N[C@H]3CCCC[C@@H]3O)c3ncccc32)cc1 [Example 1, N-((1S,2S)-2-hydroxycyclohexyl)-1-(4-methylbenzyl)-1H-pyrrolo[3,2-b]pyridine-3-carboxamide] | 7.0
17 | Cn1cc(-c2ccc(Cn3cc(C(=O)N[C@H]4CCCC[C@@H]4O)c4ncccc43)cc2)cn1 [Example 57, N-((1S,2S)-2-Hydroxycyclohexyl)-1-(4-(1-methyl-1H-pyrazol-4-yl)benzyl)-1H-pyrrolo[3,2-b]pyridine-3-carboxamide] | 7.6
18 | CN1CCC(NC(=O)c2cn(Cc3ccc(F)cc3)c3cccnc23)CC1 [Example 31, 1-(4-Fluorobenzyl)-N-(1-methylpiperidin-4-yl)-1H-pyrrolo[3,2-b]pyridine-3-carboxamide] | 6.5
19 | CN1CCC[C@H](NC(=O)c2cn(Cc3ccc(-n4cccn4)cc3)c3cccnc23)C1 [Example 54, (S)-1-(4-(1H-Pyrazol-1-yl)benzyl)-N-(1-methylpiperidin-3-yl)-1H-pyrrolo[3,2-b]pyridine-3-carboxamide] | 7.5
20 | O=C(N[C@H]1CCCC[C@@H]1O)c1cn(Cc2ccc(OC(F)(F)F)cc2)c2cccnc12 [Example 9, N-((1S,2S)-2-Hydroxycyclohexyl)-1-(4-(trifluoromethoxy)benzyl)-1H-pyrrolo[3,2-b]pyridine-3-carboxamide] | 6.6
21 | Cc1ccnc2c(C(=O)N[C@H]3CCCC[C@@H]3O)cn(Cc3cnn(C)c3)c12 [Example 73, N-((1S,2S)-2-Hydroxycyclohexyl)-7-methyl-1-((1-methyl-1H-pyrazol-4-yl)methyl)-1H-pyrrolo[3,2-b]pyridine-3-carboxamide] | 7.9
22 | O=C(N[C@H]1CCCC[C@@H]1O)c1cn(Cc2cc(F)cc(F)c2)c2cccnc12 [Example 2, 1-(3,5-Difluorobenzyl)-N-((1S,2S)-2-hydroxycyclohexyl)-1H-pyrrolo[3,2-b]pyridine-3-carboxamide] | 6.7
23 | Cc1cnc(Cn2cc(C(=O)N[C@H]3CCCC[C@@H]3O)c3nccc(Cl)c32)s1 [Example 75, 7-Chloro-N-((1S,2S)-2-hydroxycyclohexyl)-1-((5-methylthiazol-2-yl)methyl)-1H-pyrrolo[3,2-b]pyridine-3-carboxamide] | 6.6
24 | O=C(N[C@H]1CCCC[C@@H]1O)c1cn(Cc2cccc(F)c2F)c2c(Cl)ccnc12 [Example 15, 7-Chloro-1-(2,3-difluorobenzyl)-N-((1S,2S)-2-hydroxycyclohexyl)-1H-pyrrolo[3,2-b]pyridine-3-carboxamide] | 7.0
25 | O=C(N[C@H]1CCCC[C@@H]1O)c1cn(Cc2ccc(C(F)(F)F)cc2)c2cccnc12 [Example 90, N-((1S,2S)-2-hydroxycyclohexyl)-1-(4-(trifluoromethyl)benzyl)-1H-pyrrolo[3,2-b]pyridine-3-carboxamide] | 6.6
26 | Cc1ccnc2c(C(=O)N[C@H]3CCCC[C@@H]3O)cn(Cc3cc(F)cc(F)c3)c12 [Example 101, 1-(3,5-difluorobenzyl)-N-((1S,2S)-2-hydroxycyclohexyl)-7-methyl-1H-pyrrolo[3,2-b]pyridine-3-carboxamide] | 7.0
27 | O=C(N[C@H]1CCCC[C@@H]1O)c1cn(Cc2ccccc2F)c2cccnc12 [Example 22, 1-(2-Fluorobenzyl)-N-((1S,2S)-2-hydroxycyclohexyl)-1H-pyrrolo[3,2-b]pyridine-3-carboxamide] | 6.5
28 | Cc1ccc(Cn2cc(C(=O)N[C@H]3CCCC[C@@H]3O)c3ncccc32)c(F)c1 [Example 97, 1-(2-fluoro-4-methylbenzyl)-N-((1S,2S)-2-hydroxycyclohexyl)-1H-pyrrolo[3,2-b]pyridine-3-carboxamide] | 6.9
